The values that follow come from patent publication US6251950A, “Aliphatic propargylamines as cellular rescue agents” (University of Saskatchewan, priority 1998, dated 2001).

Read-outs that look alike come from different tables or passages of the source.

In data set [1] the test system is cerebellar granule cells (CGC). Briefly: in vitro. The format is cell-based, Wistar rat. An excerpt:
(§1) Cultures of cerebellar granule cells (CGC) can be induced into apoptosis by the addition of a high concentration of cytosine arabinoside (Ara C) (Dessi et al., 1995) and it has been shown that this is a p53 dependent apoptosis (Enokido et al, 1996). We have measured the antiapoptotic effect of N-(2-heptyl)propargylamine (2HPA) using this system and compared the results to those obtained with previously known aliphatic methyl propargylamines and deprenyl.
(§2) Cultures of CGC were obtained from 6-8 day old Wistar rat pups. Cultures were grown on glass in 35 mm petri dishes for 3 days and then used for experiments. 20 μl aliquots of drug solutions (Ara C, anti-apoptotic drugs, drug vehicles) were added to the medium of the cultures. 24 Hours later the cultures were fixed with FAM, and stained with bis-benzamide. Normal and apoptotic nuclei were counted to a total of 90-120 cells per culture. […] Concentrations in excess of 150 μM caused detachment of the cultures.
(§3) Compounds were added at the following concentrations: Ara C, 100 μM,

A short description of data set [2]: in vitro. The format is cell-based, Wistar rat. The note with it: rat, cerebellar granule cells.
Text: as §1, §2, §3

The test system of data set [3] is damaged neurons. The note with it: cited from earlier work.
In data set [4] the target is T1, rat liver mitochondrial monoamine oxidase B (Rattus norvegicus, UniProt P19643).
T1 sequence (P19643 1-520): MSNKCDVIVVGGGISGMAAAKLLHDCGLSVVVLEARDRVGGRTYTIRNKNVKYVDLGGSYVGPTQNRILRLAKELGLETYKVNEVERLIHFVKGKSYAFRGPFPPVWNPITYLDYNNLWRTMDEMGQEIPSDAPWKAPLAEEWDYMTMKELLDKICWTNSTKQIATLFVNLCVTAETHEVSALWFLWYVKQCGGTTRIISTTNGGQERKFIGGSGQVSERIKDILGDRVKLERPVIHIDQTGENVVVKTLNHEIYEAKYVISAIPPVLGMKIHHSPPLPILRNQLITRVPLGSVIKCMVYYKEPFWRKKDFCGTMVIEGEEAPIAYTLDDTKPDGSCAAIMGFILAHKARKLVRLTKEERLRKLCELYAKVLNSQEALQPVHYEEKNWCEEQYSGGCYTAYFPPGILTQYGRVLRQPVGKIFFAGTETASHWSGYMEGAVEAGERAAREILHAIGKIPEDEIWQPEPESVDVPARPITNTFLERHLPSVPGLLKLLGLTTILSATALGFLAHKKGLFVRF
Briefly: biochemical. The format is biochemical. To be noted: for Comparison to most effective MAO-B inhibitor in group: in vitro, relative to most effective inhibitor in group; for IC50: substrate PE (β-phenylethylamine) 1.9 × 10^-5 M, average of at least 2 independent triplicate experiments. On the procedure: Enzyme activity was assessed using a radiometric method as previously described (Yu et al, 1992).

Data set [5] deals with T2, mouse brain MAO-B (Mus musculus, UniProt Q8BW75).
T2 construct: Striata were dissected from the brain two hours after i.p. administration of the drugs; from tissue; host or cells: mouse brain striata, dissected two hours after i.p. dosing
T2 sequence (Q8BW75 1-520): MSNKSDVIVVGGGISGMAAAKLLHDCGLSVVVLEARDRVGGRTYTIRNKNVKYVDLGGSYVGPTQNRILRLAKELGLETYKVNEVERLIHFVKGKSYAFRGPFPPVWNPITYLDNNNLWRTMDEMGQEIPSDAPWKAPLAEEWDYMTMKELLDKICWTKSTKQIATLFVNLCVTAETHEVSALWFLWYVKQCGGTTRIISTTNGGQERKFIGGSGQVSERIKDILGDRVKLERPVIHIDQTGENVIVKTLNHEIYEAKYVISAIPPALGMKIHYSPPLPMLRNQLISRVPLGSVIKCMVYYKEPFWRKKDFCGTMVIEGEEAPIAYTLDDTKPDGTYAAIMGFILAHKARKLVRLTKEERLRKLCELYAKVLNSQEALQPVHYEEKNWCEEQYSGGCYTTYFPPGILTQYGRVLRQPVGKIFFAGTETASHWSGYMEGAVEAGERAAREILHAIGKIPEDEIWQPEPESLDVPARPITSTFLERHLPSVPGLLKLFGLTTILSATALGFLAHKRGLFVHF
In words: Inhibition in vivo of brain MAO-B activity after intraperitoneal administration. The note with it: for Comparison to most effective inhibitor: in vivo, relative to R-2HMP; for ED50: mouse, ip, 2 h, read-out: IC50 (mg/Kg) (MAO-B, in vivo). On the procedure: Results are the average of two independent triplicate experiments for each i.p. dose. The doses were 0.5, 1, 2, 5, 10, 20 mg/Kg. Striata were dissected from the brain two hours after i.p. administration of the drugs. MAO-B activities were then determined immediately (Yu et al 1992). The values were estimated from dose-response curves.

In data set [6] the test system is pyramidal neurons in the hippocampus (CA1 neurons). Briefly: Hypoxia/ischaemia model, CA1 neuron survival. The class given is in vivo, rat. The note with it: for mean survival of CA1 neurons, percentage of vehicle treated controls (Table 2) / response vs control in vivo at 0.1 µmol/kg: 0.1 μmol/kg, vehicle = 100%, ± sem (n = 6-10); for mean survival of CA1 neurons, percentage of vehicle treated controls (Table 2) / response vs control in vivo at 0.1 µmol/kg / activity in the hypoxia/ischaemia model: s.c.; for mean survival of CA1 neurons, percentage of vehicle treated controls (Table 2): **P < 0.01; for response vs control in vivo at 0.1 µmol/kg: *P < 0.05, **P < 0.01, read-out: Percentage survival of CA1 neurones, of vehicle treated controls (Table 4).
Text: This model produces selective, unilateral lesioning of the pyramidal neurons in the hippocampus which involves neuronal apoptosis.
Values are the mean survival of CA1 neurons expressed as a percentage of
vehicle treated controls (vehicle = 100%) ± sem (n = 6 - 10).

In data set [7] the test system is hippocampal CA1 neurons. Briefly: Kainic acid-induced neuronal damage. To be noted: in words. The class given is in vivo, rat.
Data set [8] deals with c-Fos. Briefly: Kainate-induced delayed c-Fos expression in hippocampal CA1 field. The format is in vivo, rat. On the procedure:
(§4) The levels of both proteins were measured 24 h after a single injection of kainate (10 mg/Kg,i.p). The levels (assessed by quantitative immunohistochemical imaging) can be seen in Table 5.
(§5) Values are means ± sem (n = 5)
(§6) Kainate (10 mg/Kg, i.p.); Rats with seizures between stages IV severe to V
(§7) severe were used. R-2HPA (0.25 mg/Kg, s.c.) was administered 4 h after
(§8) kainate injection; HSP70 and c-Fos expression were assessed 24 h after
(§9) kainate treatment (for details of method please see Zhang et al, 1996).
(§10) Statistics were performed using ANOVA followed by Newman-Keuls multiple

Data set [9] concerns SOD1 mRNA, PC12 cells. Briefly: SOD1 mRNA levels in PC12 cells (Northern Blot). The format is cell-based. How it is done: PC12 cells were used to study the gene regulation of SOD (copper, zinc-dependent type, i.e. SOD1) by (R)-2-heptylpropargylamine (R-2HPA).
The SOD1 mRNA levels were detected by Northern Blots using total RNA from cultured PC12 cells treated with R-2HPA for 24 hours. The blots were hybridized with SOD1 cDNA probe labelled with P^32 dCTP and the auto radiographs were scanned by a Beckman spectrometer.

Data set [10] concerns HSP70. In words: Kainate-induced HSP70 expression in hippocampal CA1 field. The format is in vivo, rat. On the procedure:
as §4, §5, §6, §7, §8, §9, §10

In data set [11] the test system is LNGFR mRNA, PC12 cells. Briefly: LNGFR mRNA levels in PC12 cells (Northern Blot). The class given is cell-based. How it is done:
The LNGFR mRNA levels were detected by Northern Blots using total RNA from cultured PC12 cells treated with R-2HPA for 24 hours. The blots were hybridized with LNGFR cDNA probe labelled with P^32 dCTP and the auto radiographs were scanned by a Beckman spectrometer.

Data set [12] concerns neurons. To be noted: cited from earlier work.
The conditions of data set [13]: low concentrations; cited from earlier work.
The test system of data set [14] is SOD1 mRNA, PC12 cells. The note with it: Li, et al., 1995; cited from earlier work.
The mark [15] stands for this setting: after kainate, rat hippocampal CA1 region.
The mark [16] stands for this setting: kainate 10 mg/Kg i.p., R-2HPA 0.25 mg/Kg s.c. 4 h after, assessed 24 h after kainate, mean ± sem (n = 5), *p < 0.01.
[17] abbreviates: kainate 10 mg/Kg i.p., 24 h, mean ± sem (n = 5).

As to `Nc1ccn([C@@H]2O[C@H](CO)[C@@H](O)[C@@H]2O)c(=O)n1` [Ara C, cytosine arabinoside], the “Percent Apoptotic Nuclei (Ara C alone)” value in data set [1] (Ara C 100 μM, mean ± sem of 4 cultures) was determined as 14.6 ± 0.9%. In data set [2], this compound yielded an MCC at 24 h greater than 150 µM.
For the compound `C#CCNC(C)Cc1ccccc1` (stereo not drawn) [Desmethyldeprenyl], in data set [3], the “anti-apoptotic / neurorescue activity” value was “active as an anti-apoptotic drug”.
As to `C#CCN(C)[C@H](C)CCCCC` [Example R-2HMP, (R)-N-(2-heptyl)-N-methyl-propargylamine], the “blocking of Ara C induced apoptosis” value in data set [1] (10^-7 M (FIG. 1c)) is on record as “completely blocked”. In data set [1] (Rattus norvegicus, inhibition of Ara C induced apoptosis (FIG. 1a, 1b)), the 50% effective concentration (EC50) was 1 to 100 nM. The “Percent Apoptotic Nuclei (Control + compound)” value in data set [1] (no Ara C, R-2HMP 100 nM, S-2HMP 10 μM, S-2HPA 10 μM, mean ± sem of 4 cultures, control 4.2 ± 0.3) is listed as 4.8 ± 0.7%. In addition, the “Percent Apoptotic Nuclei (Ara C + compound)” value in [1] (with Ara C 100 μM, R-2HMP 100 nM, S-2HMP 10 μM, S-2HPA 10 μM, mean ± sem of 4 cultures, *P < 0.05 compared to Ara C alone) was determined as 6.3 ± 0.8%. Moreover, in [4], the “Comparison to most effective MAO-B inhibitor in group” value was 100% and 30 nM corresponded to half-maximal inhibition (IC50). Also, the “Comparison to most effective inhibitor” value in [5] (i.p.) was 100%. Besides, the “potency relative to R-deprenyl” value in [5] (mouse brain MAO-B, i.p., fold more potent than R-deprenyl) came to 2.5 fold. Also, in data set [5] (PE 1.9 × 10^-5 M, i.p., striata two hours after administration, estimated from dose-response curves), the ED50 was 0.2 mg/kg. Moreover, in [6], the “mean survival of CA1 neurons, percentage of vehicle treated controls (Table 2)” value is 239 ± 35% and the “activity in the hypoxia/ischaemia model” value is on record as “shows significant activity”. For the same compound, in data set [6] (Rattus norvegicus, Neuron, sc), the response vs control in vivo at 0.1 µmol/kg was found to be 239 ± 35%. The ED50 in data set [6] (Rattus norvegicus, Neuron, sc, subcutaneous administration) lay within 0.001 to 0.01 µmol/kg.
Take `C#CCN[C@H](C)CCCCC.Cl` [Example R-2HPA, (R)-N-2-Heptylpropargylamine hydrochloride]: in data set [7], the “prevention of kainic acid-induced neuronal damage” value was “capable of preventing kainic acid-induced neuronal damage”. In addition, in data set [8] (setting [15]), the “delayed c-Fos expression” value was “able to block the expression of both genes”. Also, the “Delayed c-Fos (Kainate + compound)” value in [8] (setting [16]) was found to be 4.5 ± 3.7. Moreover, the “SOD1 gene expression” value in data set [9] (PC12 cells) is recorded as “stimulate SOD1 gene expression”. The SOD1 mRNA level, % of control at 1 µM in [9] (Rattus norvegicus, PC-12, 1 μM, 24 hours, Mean ± SD (n = 4), **p < 0.01, control 100 ± 20) is 184 ± 41%. In [4], the “Comparison to most effective MAO-B inhibitor in group” value worked out at 0.8% and the IC50 was 4000 nM. The “inhibitory effect on mouse brain MAO-B” value in data set [5] (i.p., compared with R-2HMP) was “weaker inhibitory effect”. Besides, the “Comparison to most effective inhibitor” value in data set [5] (i.p.) turned out to be 5%. Also, in data set [5] (mouse brain MAO-B, i.p.), the “ED50 value fold higher than that of R-2HMP” value is listed as 20 fold. Besides, in data set [5], the ED50 came to 4 mg/kg. Further, in data set [10] (setting [15]), the “HSP70 expression” value is “able to block the expression of both genes”. In addition, the “HSP70 (Kainate + compound)” value in [10] (setting [16]) was found to be 4.6 ± 2.0. In addition, in data set [6], the “mean survival of CA1 neurons, percentage of vehicle treated controls (Table 2)” value was 320 ± 48% and the “activity in the hypoxia/ischaemia model” value is on record as “Most active”. Besides, the response vs control in vivo at 0.1 µmol/kg in data set [6] (Rattus norvegicus, Neuron, sc) worked out at 320 ± 48%. Further, the “potency following oral administration versus R-2HMP” value in data set [6] (oral) is “more potent than its aliphatic methyl propargylamine analogue, R-2HMP”. The “LNGFR mRNA” value in data set [11] (PC12 cells) is “downregulated LNGFR mRNA”. For the same compound, the mrna remaining at 1 µM in data set [11] (Rattus norvegicus, PC-12, 1 μM, 24 hours, Mean ± SD (n = 4), **p < 0.01, control 100 ± 5.4) is 68.8 ± 16.4%.
Consider `C=C(C)[C@H]1CN[C@H](C(=O)O)[C@H]1CC(=O)O` [Kainate, kainic acid], for which the “Delayed c-Fos (Kainate alone)” value in data set [8] (setting [17]) was determined as 18.0 ± 4.5. The “HSP70 (Kainate alone)” value in [10] (setting [17]) amounted to 10.8 ± 3.1.
For the compound `C#CCNC1CCc2ccccc21` (stereo not drawn) [N-propargyl-1-aminoindan], the “in vitro neuronal survival after glutamate toxicity” value in [12] is “effective in enhancing the in vitro neuronal survival”.
For the compound `CC(N)Cc1ccccc1` (stereo not drawn) [amphetamine], the neurotoxicity entry in data set [13] is “neurotoxic even at quite low concentrations”.
Consider `CN[C@@H](C)Cc1ccccc1` [methamphetamine], for which the neurotoxicity entry in data set [13] is listed as “neurotoxic even at quite low concentrations”.
With `CCCC(C(=O)OCCN(CC)CC)(c1ccccc1)c1ccccc1` [proadifen], in data set [3] (pretreatment with P450 inhibitor), the “effect on P450-dependent neurorescue properties of deprenyl” value was “eliminates the neurorescue properties of deprenyl”.
For the compound NGF: NGF, the “SOD1 mRNA induction (previous findings)” value in [14] was “can induce SOD1 mRNA in a dose dependent manner”.
